The values below come from ChEMBL document CHEMBL1153460, “Potent aza-peptide derived inhibitors of HCV NS3 protease” (Bioorg Med Chem Lett, 2009).

Assay [1] in a line: Selectivity ratio, Ki for human neutrophil elastase to Ki for HCV NS3 protease.
Assay [2] in a line: Inhibition of HCV NS3 protease by continuous spectrophotometric assay. The arrangement: species or system Hepacivirus hominis.
A further assay has as its system Hepatitis C virus. Put plainly: Antiviral activity against HCV by replicon-based cellular assay. It is filed as functional, Hepacivirus hominis. On the technique in general: Replicon systems follow genome replication, usually without infectious particles.

Activity calls are given as the source filed them. The rule behind the calls is not given here. Starred links: 1 amine or outer side, 2 acyl side, 3 side chain; linkers in the order of their positions; H or OH if unused. Non-standard residues stand in square brackets, D forms with d. Residues, ends and D or L forms follow the SMILES beside them. *: point of attachment. Pro(4R-OPh) = O=C(O)[C@@H]1C[C@@H](Oc2ccccc2)CN1; NH(1R-phenylethyl) = C[C@@H](N*)c1ccccc1; azaNva = CCCN(N[*:1])C(=O)[*:2]; Aad = N[C@@H](CCCC(=O)O)C(=O)O; Tle = CC(C)(C)[C@H](N)C(=O)O

The Ki is the equilibrium dissociation constant of an inhibitor or competing ligand from its target. For orientation: EC90 means the point of the concentration-response curve where the effect stands at 90%.

Take `CCCN(NC(=O)[C@@H]1[C@@H]2[C@H](CN1C(=O)[C@@H](NC(=O)N[C@H](CN1C(=O)CC(C)(C)CC1=O)C(C)(C)C)C(C)(C)C)C2(C)C)C(=O)N[C@H](C)c1ccccc1`: in assay [1], the Ratio Ki is 960. The Ki in assay [2] was determined as 64 nM. It took 300 nM to reach the 90% level in the assay on Hepatitis C virus (EC90).

Regarding `CCCN(NC(=O)[C@@H]1[C@@H]2[C@H](CN1C(=O)[C@@H](NC(=O)N[C@H](CN1C(=O)C3CCC(C3)C1=O)C(C)(C)C)C(C)(C)C)C2(C)C)C(=O)CCc1ccccc1`, the inhibition constant (Ki) in assay [2] worked out at 720 nM. In the assay on Hepatitis C virus, this compound yielded an EC90 of 3500 nM.

Consider `CCCN(NC(=O)[C@@H]1[C@@H]2[C@H](CN1C(=O)[C@@H](NC(=O)N[C@H](CN1C(=O)C3CCC(C3)C1=O)C(C)(C)C)C(C)(C)C)C2(C)C)C(=O)OC(C)(C)C`, for which the Ki in assay [2] came to 3100 nM. Besides, the EC90 with Hepatitis C virus turned out to be 24000 nM.

In the case of `CCCN(NC(=O)[C@@H]1[C@@H]2[C@H](CN1C(=O)[C@@H](NC(=O)N[C@H](CN1C(=O)C3CCC(C3)C1=O)C(C)(C)C)C(C)(C)C)C2(C)C)C(=O)NC1CC1`, the inhibitory constant (Ki) in assay [2] turned out to be 750 nM. Moreover, the 90% effect concentration (EC90) in the assay on Hepatitis C virus came out at 6000 nM.

`CCCN(NC(=O)[C@@H]1[C@@H]2[C@H](CN1C(=O)[C@@H](NC(=O)N[C@H](CN1C(=O)C3CCC(C3)C1=O)C(C)(C)C)C(C)(C)C)C2(C)C)C(=O)Nc1ccccc1` came in with a Ki in assay [2] of 950 nM. In the assay on Hepatitis C virus, this compound came in with an EC90 of 2400 nM.

In the case of `CCCN(NC(=O)[C@@H]1[C@@H]2[C@H](CN1C(=O)[C@@H](NC(=O)N[C@H](CN1C(=O)C3CCC(C3)C1=O)C(C)(C)C)C(C)(C)C)C2(C)C)C(=O)N[C@H](C)c1ccccc1`, in assay [2], the Ki was 32 nM. For the same compound, the EC90 in the assay with Hepatitis C virus amounted to 250 nM.

`C[C@@H](NC(=O)N(CC1CC1)NC(=O)[C@@H]1[C@@H]2[C@H](CN1C(=O)[C@@H](NC(=O)N[C@H](CN1C(=O)CC(C)(C)CC1=O)C(C)(C)C)C(C)(C)C)C2(C)C)c1ccccc1` yielded a Ki in assay [2] of 200 nM. Moreover, the EC90 entry with Hepatitis C virus (Hepacivirus hominis) is “inactive”.

`CCCN(NC(=O)[C@@H]1C[C@@H](Oc2ccccc2)CN1C(=O)[C@@H](NC(=O)[C@@H](NC(=O)[C@H](CCCC(=O)O)NC(=O)[C@H](CCCC(=O)O)NC(C)=O)C(C)C)C(C)(C)C)C(=O)N[C@H](C)c1ccccc1` (Ac-[Aad][Aad]V[Tle][Pro(4R-OPh)][azaNva]-{NH(1R-phenylethyl)}) registered a Ki in assay [2] of 78 nM.

As to `CC(C)(C)NC(=O)N[C@H](C(=O)N1C[C@H]2[C@@H]([C@H]1C(=O)NC(CC1CCC1)C(=O)C(N)=O)C2(C)C)C(C)(C)C` (stereo not given in full) [BOCEPREVIR], in assay [1], the Ratio Ki worked out at 2200. In assay [2], this compound had a Ki of 14 nM. In addition, it took 350 nM to reach the 90% level in the assay with Hepatitis C virus (EC90).

Consider `CCCN(NC(=O)[C@@H]1[C@@H]2[C@H](CN1C(=O)[C@@H](NC(=O)N[C@H](CN1C(=O)C3CCC(C3)C1=O)C(C)(C)C)C(C)(C)C)C2(C)C)C(C)=O`, for which the Ki in assay [2] came out at 22000 nM. In the assay on Hepatitis C virus (Hepacivirus hominis), the EC90 entry was “inactive”.

Compound `CCCN(NC(=O)[C@@H]1[C@@H]2[C@H](CN1C(=O)[C@@H](NC(=O)N[C@H](CN1C(=O)C3CCC(C3)C1=O)C(C)(C)C)C(C)(C)C)C2(C)C)C(=O)c1ccccc1` showed a Ki in assay [2] of 52000 nM. In addition, in the assay on Hepatitis C virus (Hepacivirus hominis), the EC90 result is “inactive”.

On to `CCCN(NC(=O)[C@@H]1[C@@H]2[C@H](CN1C(=O)[C@@H](NC(=O)N[C@H](CN(C)S(C)(=O)=O)C(C)(C)C)C(C)(C)C)C2(C)C)C(=O)N[C@H](C)c1ccccc1`, for which the affinity in assay [2] corresponds to a Ki of 110 nM. In the assay with Hepatitis C virus, the 90% effect concentration (EC90) came to 700 nM.

For the compound `CCCN(NC(=O)[C@@H]1[C@@H]2[C@H](CN1C(=O)[C@@H](NC(=O)N[C@H](CN1C(=O)C3CCC(C3)C1=O)C(C)(C)C)C(C)(C)C)C2(C)C)C(=O)C1CC1`, the inhibitory constant (Ki) in assay [2] came out at 3000 nM. The compound also returned an EC90 in the assay on Hepatitis C virus of 15000 nM.

`CCCN(NC(=O)[C@@H]1[C@@H]2[C@H](CN1C(=O)[C@@H](NC(=O)N[C@H](CN1C(=O)C3CCC(C3)C1=O)C(C)(C)C)C(C)(C)C)C2(C)C)C(=O)NC1CCCCC1` yielded an inhibition constant Ki in assay [2] of 1300 nM. Moreover, the EC90 in the assay with Hepatitis C virus is 16000 nM.

`C[C@@H](NC(=O)N(CC1CC1)NC(=O)[C@@H]1[C@@H]2[C@H](CN1C(=O)[C@@H](NC(=O)N[C@H](CN1C(=O)C3CCC(C3)C1=O)C(C)(C)C)C(C)(C)C)C2(C)C)c1ccccc1` had an inhibition constant (Ki) in assay [2] of 250 nM. Also, it took 1100 nM to reach the 90% level in the assay on Hepatitis C virus (EC90).

Compound `CCCN(NC(=O)[C@@H]1[C@@H]2[C@H](CN1C(=O)[C@@H](NC(=O)N[C@H](CN1C(=O)C3CCC(C3)C1=O)C(C)(C)C)C(C)(C)C)C2(C)C)C(=O)NC(C)(C)C` yielded an inhibition constant (Ki) in assay [2] of 1600 nM. Also, the EC90 in the assay with Hepatitis C virus was 8000 nM.

For `CCCN(NC(=O)[C@@H]1[C@@H]2[C@H](CN1C(=O)[C@@H](NC(=O)N[C@H](CN(C)S(=O)(=O)c1cccnc1)C(C)(C)C)C1CCCCC1)C2(C)C)C(=O)N[C@H](C)c1ccccc1`, the affinity in assay [2] corresponds to a Ki of 230 nM. Besides, the EC90 result in the assay on Hepatitis C virus (Hepacivirus hominis) was “inactive”.
